Laboratory results as given in patent publication US20120064531A1, “MODIFIED NUCLEOTIDE AND REAL-TIME POLYMERASE REACTION USING THE SAME” (Korea Institute of Science and Technology, priority 2010, published 2012).

What was measured:
[1] = test system: Therminator γ DNA polymerase; experiment: Quantitative real-time PCR analysis (fluorescence after each cycle, Ct standard curve); type: biochemical; details: for Sensitivity (Required PCR cycles for 1 copy number: Y-intercept): real-time PCR standard curve, a lower value means more sensitivity; for (Efficiency, %) [100 × (10^(−1/slope) − 1)]: real-time PCR, template 10 nM to 10 fM, 40 cycles, Max = 100%
Procedure: Total of 40 cycles of PCR was performed, wherein each cycle consists of 94° C. for 10 sec, 54° C. for 15 sec, and 72° C. for 10 sec. After each cycle was completed, fluorescence intensity was measured in real time by using StepOne real-time PCR system (ABI). […] Ct (threshold cycle) value was set up by determining the point at which the threshold encounters the polymerization curve. […] Analysis was performed under the PCR conditions, the equipment and the method identical to that of <example 4>.

[2] = target: T1, Taq DNA polymerase (Thermus aquaticus, UniProt P19821); experiment: Primer extension reaction with PAGE to search for a DNA polymerase able to use γF-dGTP as a substrate; type: biochemical; details: γF-dGTP 25 uM instead of dGTP; 5 cycles 94/46/60° C.; 20% denaturing PAGE, FIG. 3
T1 construct: purchased New England Biolabs
Procedure: (§1) In order to search DNA polymerase, primer extension reaction was performed.
(§2) More specifically, the mixed reaction solution was heated by repeating five times a cycle consisting of 20 sec at 94° C., 40 sec at 46° C., and 90 sec at 60° C.
For a control group experiment, Taq DNA polymerase reaction was performed by using dGTP in a natural state instead of γF-dGTP under the same conditions mentioned above.
(§3) After each polymerase reaction, the mixed reaction solution was developed (Vertical Gel Electrophoresis Unit, Sigma-Aldrich) by using 20% denaturing polyacrylamide gel electrophoresis (PAGE). As a result, an image of DNA fluorescence band was obtained by using scanner (Typhoon9400, GE healthcare).

[3] = test system: Therminator γ DNA polymerase; experiment: as above; type: biochemical; details: γF-dGTP 25 uM instead of dGTP; 5 cycles 94/46/60° C.; 20% denaturing PAGE, FIG. 3
Procedure: as §1, §2, §3

[4] = target: Phi29 DNA polymerase (Bacillus phage phi29, UniProt P03680); details: γF-dGTP 25 uM, 30° C. for 20 min, read every 20 sec; FIG. 6
Procedure: Real-time RCA (rolling circle amplification) analysis was performed by using 20 ul of mixed reaction solution comprising the primer having SEQ ID: 6 (5′-[…], 100 nM), the template chain having SEQ ID: 7 (5′-[…] […], 100 nM), dATP (25 uM, Promega), dCTP (25 uM, Promega), dTTP (25 uM, Promega), γF-dGTP (25 uM), BSA (100 μg/mL), Phi29 DNA polymerase reaction buffer (New England Biolabs), and Phi29 DNA polymerase. (6 units) The reaction was performed at 30° C. for 20 min and fluorescence intensity at every 20 sec was measured by the equipment used in <example 4>.

Chain of Phi29 DNA polymerase (P03680 whole entry): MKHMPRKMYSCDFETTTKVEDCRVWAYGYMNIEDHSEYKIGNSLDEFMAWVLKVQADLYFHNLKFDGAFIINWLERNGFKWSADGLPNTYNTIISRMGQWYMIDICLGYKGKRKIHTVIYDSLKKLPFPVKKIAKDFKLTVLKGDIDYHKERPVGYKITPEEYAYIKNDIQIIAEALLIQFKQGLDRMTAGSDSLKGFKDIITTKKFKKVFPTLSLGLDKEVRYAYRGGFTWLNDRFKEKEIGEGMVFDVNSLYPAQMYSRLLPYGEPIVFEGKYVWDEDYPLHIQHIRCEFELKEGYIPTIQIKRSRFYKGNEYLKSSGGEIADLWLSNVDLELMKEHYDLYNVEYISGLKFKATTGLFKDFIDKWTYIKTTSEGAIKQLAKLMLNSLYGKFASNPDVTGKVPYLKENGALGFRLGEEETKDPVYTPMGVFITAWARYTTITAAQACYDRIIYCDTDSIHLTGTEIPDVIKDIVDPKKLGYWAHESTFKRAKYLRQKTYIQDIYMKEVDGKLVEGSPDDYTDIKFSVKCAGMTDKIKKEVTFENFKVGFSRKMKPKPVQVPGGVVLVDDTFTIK
T1 sequence (P19821 whole entry): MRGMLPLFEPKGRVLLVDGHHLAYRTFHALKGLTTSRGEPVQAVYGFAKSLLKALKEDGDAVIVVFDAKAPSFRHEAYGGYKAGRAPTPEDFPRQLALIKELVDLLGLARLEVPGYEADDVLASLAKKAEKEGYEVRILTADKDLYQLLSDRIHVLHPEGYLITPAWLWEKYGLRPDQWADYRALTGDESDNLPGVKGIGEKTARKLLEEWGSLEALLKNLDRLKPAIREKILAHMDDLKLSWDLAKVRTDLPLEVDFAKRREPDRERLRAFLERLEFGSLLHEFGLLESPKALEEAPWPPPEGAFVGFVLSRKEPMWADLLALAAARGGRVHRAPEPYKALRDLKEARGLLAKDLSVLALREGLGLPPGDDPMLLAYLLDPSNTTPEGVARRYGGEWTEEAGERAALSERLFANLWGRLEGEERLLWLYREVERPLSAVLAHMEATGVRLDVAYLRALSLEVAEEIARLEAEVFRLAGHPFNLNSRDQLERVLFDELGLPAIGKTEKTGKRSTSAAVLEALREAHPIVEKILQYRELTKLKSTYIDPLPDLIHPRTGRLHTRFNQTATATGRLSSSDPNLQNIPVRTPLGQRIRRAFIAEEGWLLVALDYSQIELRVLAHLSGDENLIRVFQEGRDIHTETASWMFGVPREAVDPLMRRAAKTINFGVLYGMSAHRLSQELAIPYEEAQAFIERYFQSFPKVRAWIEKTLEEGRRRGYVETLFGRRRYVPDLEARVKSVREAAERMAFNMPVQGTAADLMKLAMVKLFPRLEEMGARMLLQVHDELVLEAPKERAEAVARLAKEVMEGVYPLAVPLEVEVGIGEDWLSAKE

| Structure (SMILES) | Sensitivity (Required PCR cycles for 1 copy number: Y-intercept) [1] | (Efficiency, %) [100 × (10^(−1/slope) − 1)] [1] [%] | Use as a substrate by the polymerase (fully extended polymerization product on PAGE) [2] | Use as a substrate by the polymerase (fully extended polymerization product on PAGE) [3] | Fluorescence intensity during real-time RCA [4] |
| --- | --- | --- | --- | --- | --- |
| CCCN(CCCN(C)C)c1cc(/C=C2/Sc3ccccc3N2C)c2ccccc2[n+]1-c1ccccc1 [SYBR green I, reference compound] | 47.2 | 80.5 | – | – | – |
| CC1=CC(C)=[N+]2C1=Cc1ccc(CCC(=O)NCCNP(=O)(O)OP(=O)(O)OP(=O)(O)OC[C@H]3O[C@@H](n4cnc5c(=O)[nH]c(N)nc54)C[C@@H]3O)n1[B-]2(F)F [γF-dGTP] | 41.5 | 93.4 | can use the modified nucleotide as a substrate | can use the modified nucleotide as a substrate | fluorescence intensity increases |
